Like-named read-outs stand apart in the source and are kept apart here.
Columns and labels:
yeast-induced pyrexia = assay: Antipyretic activity to the yeast-treated rats (Experiment I); assay type: in vivo, rats (Wistar strain male)
Protocol: To Wistar strain male rats having about 300 - 350 grs. body weight, an aqueous suspension of yeast was subcutaneously injected to induce pyrexia.
At the lapse of 4 hours since the dose of the yeast suspension, the compounds under test given in hereinaftermentioned Table 10 in a form of suspension in a 5% gum arabic aqueous solution are orally administered. The rectal temperatures of the rats were measured periodically by means of a thermister-type thermometer sold by Japan Koden K.K. As control, said 5% gum arabic aqueous solution alone was administered.

stomachs of the rats = assay type: in vivo; details: score 0 (nothing unusual) to 10 (considerable irritability with bleeding)
Source text: Observation of gastric irritability
Gastric irritability due to oral administration of the compounds as edema inhibitory agent was studied by macroscopical observation of the dissected stomachs of the rats which had been employed for determination of the edema inhibitions mentioned in the preceding paragraphs. The degrees of the irritability observed were scored in the 0 to 10 ratings depending upon the extent of errosions and bleedings of the stomachs, wherein the rating of 0(zero) means "nothing unusual", the rating of 10 means a state of considerable gastric irritability with bleeding and the remainders mean the intermediate degree of gastric irritability.

writhing syndrome = assay: Analgesic activity: antagonism to acetic acid writhing syndrome in mice (Experiment J); assay type: in vivo, mice (dd strain male)
Protocol: Analgesic activity of the compound of the present invention in comparison with the known compounds.
Analgesic activity of the compound was tested as the measure of antagonism to writhing syndrome appeared when 0.1 ml/10g of 0.7% acetic acid was intraperitoneally injected to the dd strain male mice having 17 - 20 grs. body weight which had been abstinence from food for 18 hours.
The compounds under test were orally administered in a form of suspension in a 5% aqueous solution of gum arabic. After one hour from the administration, the onset times required for the writhing syndrome were scored.
In another Experiment in the combined use of the compounds under test and Codeine phosphate, 10 - 20 mg/kg of Codeine phosphate were orally administered immediatly after the oral administration of the compounds under test.

in vivo = details: mouse, po
Protocol: Comparison of toxicity of the phenyl propionic acid derivatives of the present invention and that of the other known anti-inflammatory agents was carried out in mice.

ARRS-induced edema = assay: Inhibitory activity on anti-rat-rabbit serum (ARRS)-induced edema in rats (Experiment D); assay type: in vivo
Protocol: Inhibitory activity on anti-rat-rabbit serum (ARRS)-induced edema in rats Similar Experiments was carried out by using ARRS as irritant substance.

[1] = system: Carrageenin-induced edema; assay: Inhibitory activity on Carrageenin-induced Edema in rats (Experiment A); assay type: in vivo, rats (male Wistar); details: 3 hours after Carrageenin
Protocol: Inhibitory activity on Carrageenin-induced Edema in rats
Carrageenin was used as the agent for inducing edema and 5 male rats of Wistar strain having body weight of about 150 grs. after fasting for 16-17 hours were used as test animals. The inhibitory activity of the test compounds were determined with the paw edema method in accordance with Winter C. A. et al; Proc. Soc. Exp. Biol. Med. 111, 544 (1962).
The compounds were suspended in an aqueous solution of gum arabic and the same were orally administered to the rats at 1 hour before the injection of Carrageenin.
The observation was effected by measuring, after 3 hours the administration of the Carrageenin, the enlarged volumes of hind paw of the rats.

Dextran-induced edema = assay: Inhibitory activity on dextran-induced edema in rats (Experiment C); assay type: in vivo
Protocol: Inhibitory activity on dextran-induced edema in rats Experiment was carried out in the manner same as those of the preceding Experiments in which dextran was employed as irritant substance.

Kaolin-induced edema = assay: Inhibitory activity on Kaolin-induced Edema in Rats (Experiment B); assay type: in vivo

CC(=O)Oc1ccccc1C(=O)O [Aspirin]
body temperature relative to normal (in words) (yeast-induced pyrexia; 320 mg/kg p.o.): body temperature injuriously depressed below the normal body temperature | Change in rectal temperature, mean ± S.E. (yeast-induced pyrexia; 1 hr, 80 mg/kg p.o.): -0.18 ± 0.10 | Change in rectal temperature, mean ± S.E. (yeast-induced pyrexia; 1 hr, 160 mg/kg p.o.): -0.48 ± 0.23 | Change in rectal temperature, mean ± S.E. (yeast-induced pyrexia; 1 hr, 320 mg/kg p.o.): -0.75 ± 0.10 | Change in rectal temperature, mean ± S.E. (yeast-induced pyrexia; 3 hrs, 80 mg/kg p.o.): -0.25 ± 0.18 | Change in rectal temperature, mean ± S.E. (yeast-induced pyrexia; 3 hrs, 160 mg/kg p.o.): -1.05 ± 0.18 | Change in rectal temperature, mean ± S.E. (yeast-induced pyrexia; 3 hrs, 320 mg/kg p.o.): -1.68 ± 0.28 | Change in rectal temperature, mean ± S.E. (yeast-induced pyrexia; 5 hrs, 80 mg/kg p.o.): -0.20 ± 0.12 | Change in rectal temperature, mean ± S.E. (yeast-induced pyrexia; 5 hrs, 160 mg/kg p.o.): -0.95 ± 0.18 | Change in rectal temperature, mean ± S.E. (yeast-induced pyrexia; 5 hrs, 320 mg/kg p.o.): -1.30 ± 0.29 | Degree of gastric irritability (stomachs of the rats; 100 mg/kg oral): 10 | Onset time of writhing syndrome, mean ± S.E. (writhing syndrome; 10 mg/kg p.o. combined with Codeine Phosphate 10 mg/kg): 5.4 ± 0.4 min | Onset time of writhing syndrome, mean ± S.E. (writhing syndrome; 10 mg/kg p.o. combined with Codeine Phosphate 20 mg/kg): 9.6 ± 1.8 min | Onset time of writhing syndrome, mean ± S.E. (writhing syndrome; 160 mg/kg p.o. combined with Codeine Phosphate 10 mg/kg): 6.2 ± 0.6 min | Onset time of writhing syndrome, mean ± S.E. (writhing syndrome; 160 mg/kg p.o. combined with Codeine Phosphate 20 mg/kg): 11.1 ± 1.6 min | minimal effective dose (writhing syndrome; Mus musculus, 1 h, single oral administration, read-out: dose with significant antagonism / retardation of writhing syndrome): 160 mg/kg | Onset time of writhing syndrome, mean ± S.E. (writhing syndrome; test compound alone, 10 mg/kg p.o.): 5.2 ± 1.4 min | Onset time of writhing syndrome, mean ± S.E. (writhing syndrome; test compound alone, 160 mg/kg p.o.): 5.9 ± 0.8 min | LD50 (in vivo): 1600 mg/kg

CC(C(=O)O)c1cccc(Oc2ccccc2)c1 (stereo not drawn) [Compound (2), reference compound]
% of Inhibition (ARRS-induced edema; after 2 hrs, oral 8 mg/kg): 7% | Edema D. ± S.E. (ARRS-induced edema; after 2 hrs, oral 8 mg/kg): .634 ± .048 | % of Inhibition (ARRS-induced edema; after 2 hrs, oral 40 mg/kg): 19% | Edema D. ± S.E. (ARRS-induced edema; after 2 hrs, oral 40 mg/kg): .553 ± .038 | % of Inhibition (ARRS-induced edema; after 3 hrs, oral 8 mg/kg): 16% | Edema D. ± S.E. (ARRS-induced edema; after 3 hrs, oral 8 mg/kg): .599 ± .040 | % of Inhibition (ARRS-induced edema; after 3 hrs, oral 40 mg/kg): 26% | Edema D. ± S.E. (ARRS-induced edema; after 3 hrs, oral 40 mg/kg): .531 ± .026 | % of Inhibition ([1]; oral 8.0 mg/kg): 31% | Edema density ± S.E. ([1]; oral 8.0 mg/kg): .373 ± .039 | % of Inhibition ([1]; oral 10.0 mg/kg, 10 mg/kg): 35% | Edema density ± S.E. ([1]; oral 10.0 mg/kg, 10 mg/kg): .352 ± .063 | Degree of gastric irritability (stomachs of the rats; 50 mg/kg oral): 3 | % of Inhibition (Dextran-induced edema; after 2 hrs, oral 8 mg/kg): 5% | Edema D. ± S.E. (Dextran-induced edema; after 2 hrs, oral 8 mg/kg): .795 ± .031 | % of Inhibition (Dextran-induced edema; after 2 hrs, oral 40 mg/kg): 1% | Edema D. ± S.E. (Dextran-induced edema; after 2 hrs, oral 40 mg/kg): .846 ± .013 | % of Inhibition (Dextran-induced edema; after 3 hrs, oral 8 mg/kg): 1% | Edema D. ± S.E. (Dextran-induced edema; after 3 hrs, oral 8 mg/kg): .749 ± .026 | % of Inhibition (Dextran-induced edema; after 3 hrs, oral 40 mg/kg): -3% | Edema D. ± S.E. (Dextran-induced edema; after 3 hrs, oral 40 mg/kg): .773 ± .027 | Edema D. ± S.E. (Kaolin-induced edema; after 3 hrs, oral 8 mg/kg): .418 ± .040 | % of Inhibition (Kaolin-induced edema; after 3 hrs, oral 40 mg/kg): 49% | Edema D. ± S.E. (Kaolin-induced edema; after 3 hrs, oral 40 mg/kg): .212 ± .023 | % of Inhibition (Kaolin-induced edema; after 5 hrs, oral 8 mg/kg): 11% | Edema D. ± S.E. (Kaolin-induced edema; after 5 hrs, oral 8 mg/kg): .499 ± .048 | % of Inhibition (Kaolin-induced edema; after 5 hrs, oral 40 mg/kg): 48% | Edema D. ± S.E. (Kaolin-induced edema; after 5 hrs, oral 40 mg/kg): .292 ± .031 | Edema D. ± S.E. (Kaolin-induced edema; after 7 hrs, oral 8 mg/kg): .612 ± .067 | % of Inhibition (Kaolin-induced edema; after 7 hrs, oral 40 mg/kg): 33% | Edema D. ± S.E. (Kaolin-induced edema; after 7 hrs, oral 40 mg/kg): .406 ± .057

COc1ccc2c(c1)c(CC(=O)O)c(C)n2C(=O)c1ccc(Cl)cc1 [INDOMETHACIN]
LD50 (in vivo): 37.5 mg/kg

From patent publication US3985779A, “M-phenoxyphenyl propionic acid derivatives and preparation thereof” (Eisai Co., Ltd., priority 1973, dated 1976)
